We go through three compounds from ChEMBL document CHEMBL1140985, “Expanding the repertoire of small molecule transcriptional activation domains” (Bioorg Med Chem, 2009).

A word on the EC50: it is the concentration that produces a half-maximal response. A higher EC50 goes with lower potency in that assay.

Experiment [1] has as its target T1, Glucocorticoid receptor (Homo sapiens) (UniProt P04150).
T1 sequence (whole entry): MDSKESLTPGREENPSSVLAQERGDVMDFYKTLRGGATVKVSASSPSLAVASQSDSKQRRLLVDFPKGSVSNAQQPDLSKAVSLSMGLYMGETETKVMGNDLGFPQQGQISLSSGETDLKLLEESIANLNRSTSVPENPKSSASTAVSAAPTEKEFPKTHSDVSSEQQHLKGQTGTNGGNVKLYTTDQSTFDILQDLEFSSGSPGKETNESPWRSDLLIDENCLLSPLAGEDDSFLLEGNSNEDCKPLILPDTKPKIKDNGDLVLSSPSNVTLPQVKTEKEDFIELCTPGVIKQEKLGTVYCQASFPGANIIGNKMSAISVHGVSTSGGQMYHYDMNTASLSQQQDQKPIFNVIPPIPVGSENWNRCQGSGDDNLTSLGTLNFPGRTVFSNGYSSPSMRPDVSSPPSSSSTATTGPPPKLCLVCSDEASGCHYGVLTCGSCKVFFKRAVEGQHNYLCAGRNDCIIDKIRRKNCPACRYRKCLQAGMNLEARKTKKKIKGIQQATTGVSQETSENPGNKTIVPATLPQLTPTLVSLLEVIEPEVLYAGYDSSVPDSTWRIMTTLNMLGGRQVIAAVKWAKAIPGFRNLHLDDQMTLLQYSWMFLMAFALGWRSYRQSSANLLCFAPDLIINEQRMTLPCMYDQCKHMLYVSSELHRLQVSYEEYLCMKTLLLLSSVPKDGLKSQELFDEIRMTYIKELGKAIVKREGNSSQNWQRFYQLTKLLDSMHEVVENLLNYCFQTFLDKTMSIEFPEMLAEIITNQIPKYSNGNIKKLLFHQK
As to the kind of experiment: Transcriptional activation of Gal4(1-147) tagged glucocorticoid receptor in human HeLa cells at 1 uM by luciferase reporter gene assay relative to OxDex-AEEA. It is filed as cell-based. For orientation: A reporter such as luciferase makes a cellular process visible.

Experiment [2] concerns the target T2, Glucocorticoid receptor (Homo sapiens, UniProt P04150).
T2 sequence (P04150 whole entry): T1 sequence (whole entry)
As to the kind of experiment: Transcriptional activation of Gal4(1-147) tagged glucocorticoid receptor in human HeLa cells by luciferase reporter gene assay relative to OxDex-AEEA. In kind it is cell-based.

On to `CC(C)C[C@]1(CCO)C[C@H](CNC(=O)COCCOCCNC(=O)[C@@]2(O)[C@H](C)C[C@H]3[C@@H]4CCC5=CC(=O)C=C[C@]5(C)[C@@]4(F)[C@@H](O)C[C@@]32C)ON1Cc1ccccc1`, for which, in experiment [1], the fold change (FC) is 80. In experiment [2], this compound returned an EC50 of 33 nM.
For `CC(C)C[C@](CCO)(C[C@H](O)CNC(=O)COCCOCCNC(=O)[C@@]1(O)[C@H](C)C[C@H]2[C@@H]3CCC4=CC(=O)C=C[C@]4(C)[C@@]3(F)[C@@H](O)C[C@@]21C)NCc1ccccc1`, in experiment [2], the midpoint of the response, the EC50, lay at 2500 nM.
On the same count and under the same terms, for `CC(C)C[C@@H](NC(=O)COCCOCCNC(=O)[C@@]1(O)[C@H](C)C[C@H]2[C@@H]3CCC4=CC(=O)C=C[C@]4(C)[C@@]3(F)[C@@H](O)C[C@@]21C)C(=O)N[C@H](CO)C(=O)N[C@H](Cc1ccccc1)C(N)=O` the value was 1860 nM.
